Among the data in ChEMBL document CHEMBL1201862, “PubChem BioAssay data set” (2004) are AC50, EC50 and IC50 values, retold here.

The source made the active and inactive calls. A value given as a limit tells only on which side of the number the result lay.

Series [1] has as its target Cytochrome P450 2C19 (Homo sapiens, UniProt P33261). The series can be described thus: Cytochrome panel assay with activity outcomes. Panel member name: p450-cyp2c19 Compounds with AC50 equal or less than 10 uM are considered active. In kind it is functional.
Series [2] has as its target Cytochrome P450 3A4 (Homo sapiens, UniProt P08684).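 Further: CYP3A4 tested as one member of a cytochrome P450 panel screen.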
For series [3], the target named is Cytochrome P450 2D6 (Homo sapiens, UniProt P10635).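 Further: CYP2D6 member of a cytochrome P450 panel assay.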
Chain of Cytochrome P450 2D6 (P10635 whole entry): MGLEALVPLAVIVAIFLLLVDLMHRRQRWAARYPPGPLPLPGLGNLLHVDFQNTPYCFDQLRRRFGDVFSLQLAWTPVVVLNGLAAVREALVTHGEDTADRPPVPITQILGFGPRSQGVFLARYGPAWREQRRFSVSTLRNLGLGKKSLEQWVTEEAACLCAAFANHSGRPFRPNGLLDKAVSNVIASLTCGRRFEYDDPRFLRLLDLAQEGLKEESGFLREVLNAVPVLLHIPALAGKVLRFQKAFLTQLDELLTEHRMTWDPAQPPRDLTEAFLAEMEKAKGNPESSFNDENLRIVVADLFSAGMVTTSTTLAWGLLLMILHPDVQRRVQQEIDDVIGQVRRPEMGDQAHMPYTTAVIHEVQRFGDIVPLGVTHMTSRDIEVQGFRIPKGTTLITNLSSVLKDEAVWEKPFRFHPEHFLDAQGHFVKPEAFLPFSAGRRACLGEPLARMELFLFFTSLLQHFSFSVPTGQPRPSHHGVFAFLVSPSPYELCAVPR
For series [4], the target named is Cytochrome P450 2C9 (Homo sapiens, UniProt P11712).
Chain of Cytochrome P450 2C9 (P11712 whole entry): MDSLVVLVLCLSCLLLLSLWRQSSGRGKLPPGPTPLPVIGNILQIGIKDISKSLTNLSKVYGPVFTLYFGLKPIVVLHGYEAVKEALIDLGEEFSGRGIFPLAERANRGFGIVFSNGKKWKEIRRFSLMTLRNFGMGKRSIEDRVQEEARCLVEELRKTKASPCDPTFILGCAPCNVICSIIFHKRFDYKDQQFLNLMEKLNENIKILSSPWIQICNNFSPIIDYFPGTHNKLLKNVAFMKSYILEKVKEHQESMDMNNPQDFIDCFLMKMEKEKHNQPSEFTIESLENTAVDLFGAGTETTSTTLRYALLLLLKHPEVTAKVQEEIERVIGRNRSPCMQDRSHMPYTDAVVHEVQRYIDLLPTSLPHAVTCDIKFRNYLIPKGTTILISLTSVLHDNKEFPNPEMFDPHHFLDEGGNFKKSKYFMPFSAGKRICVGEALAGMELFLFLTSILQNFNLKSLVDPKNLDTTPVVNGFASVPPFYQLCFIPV
The target in series [5] is T1, Heat shock factor protein 1 (Mus musculus, UniProt P38532).
T1 sequence (P38532 whole entry): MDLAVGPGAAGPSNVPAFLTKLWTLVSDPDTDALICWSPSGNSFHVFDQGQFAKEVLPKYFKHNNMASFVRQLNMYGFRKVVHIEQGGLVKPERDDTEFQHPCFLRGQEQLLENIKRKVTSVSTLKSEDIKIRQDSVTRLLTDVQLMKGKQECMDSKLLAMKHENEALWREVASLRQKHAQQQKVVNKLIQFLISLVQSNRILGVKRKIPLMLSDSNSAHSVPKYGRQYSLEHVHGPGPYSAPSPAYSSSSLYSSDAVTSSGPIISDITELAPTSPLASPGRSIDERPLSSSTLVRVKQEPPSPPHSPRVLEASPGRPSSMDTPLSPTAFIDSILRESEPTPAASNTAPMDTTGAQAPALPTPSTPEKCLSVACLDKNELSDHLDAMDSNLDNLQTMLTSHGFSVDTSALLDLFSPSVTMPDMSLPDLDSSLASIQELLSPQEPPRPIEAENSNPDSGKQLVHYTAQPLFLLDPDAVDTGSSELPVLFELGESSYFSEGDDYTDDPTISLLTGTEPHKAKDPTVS
Nature of the series: decrease of HSF1-responsive luciferase luminescence – cell-based, NIH3T3, dose retest, confirmation (AID 2382).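 Further: NIH3T3 fibroblasts with HSF1-driven luciferase reporter stressed by proteasome inhibitor MG132; luminescence from HSF1-driven luciferase expression after 8 hours of MG132 stress.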 In kind it is functional.

The subject of series [6] is INS1. The series can be described thus: INS-1E survival protection against cytokine death – cell-based, luminescence, retest, dose response (AID 449756).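 Further: cell death triggered by IL-1 beta plus TNF-alpha plus IFN-gamma mixture; protective hits raise ATP signal compared with cytokine alone wells.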 In kind it is functional. To be noted: Rattus norvegicus.
For series [7], the target named is Large T antigen (Simian virus 40, UniProt P03070). In kind it is functional, Betapolyomavirus macacae.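 Further: Confirmatory-stage PubChem screen for compounds that inhibit SV40 T antigen.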
Chain of Large T antigen (P03070 whole entry): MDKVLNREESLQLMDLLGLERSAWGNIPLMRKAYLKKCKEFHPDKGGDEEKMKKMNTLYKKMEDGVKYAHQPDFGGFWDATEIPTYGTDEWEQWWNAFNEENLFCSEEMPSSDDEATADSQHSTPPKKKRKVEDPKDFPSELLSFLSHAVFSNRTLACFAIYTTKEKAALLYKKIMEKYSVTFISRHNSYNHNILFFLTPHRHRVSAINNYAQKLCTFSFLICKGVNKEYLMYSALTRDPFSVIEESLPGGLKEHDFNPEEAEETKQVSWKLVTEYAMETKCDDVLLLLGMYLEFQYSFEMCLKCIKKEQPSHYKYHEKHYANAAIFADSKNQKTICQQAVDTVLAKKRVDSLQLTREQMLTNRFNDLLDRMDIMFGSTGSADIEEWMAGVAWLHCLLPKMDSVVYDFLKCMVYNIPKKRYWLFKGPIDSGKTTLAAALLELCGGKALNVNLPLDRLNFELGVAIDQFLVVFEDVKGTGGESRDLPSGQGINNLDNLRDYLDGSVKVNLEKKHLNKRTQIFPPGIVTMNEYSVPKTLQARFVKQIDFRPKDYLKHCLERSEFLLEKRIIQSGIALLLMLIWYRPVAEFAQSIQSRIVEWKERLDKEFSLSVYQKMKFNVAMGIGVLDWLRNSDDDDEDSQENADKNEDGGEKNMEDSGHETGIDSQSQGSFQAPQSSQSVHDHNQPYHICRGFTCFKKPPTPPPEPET
Series [8] is described as follows: NIH3T3 cell viability loss – ATP luminescence, mouse fibroblasts, counter-screen, dose response (AID 2010).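 Further: cells exposed to compound for about 90 hours before reading.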 In kind it is functional, cell-based.
Series [9] is described as follows: Trypanosoma cruzi growth suppression in host cells – NIH3T3 host cells, beta-gal luminescence, confirmation (AID 2044).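 Further: intracellular parasites grown in NIH/3T3 mouse fibroblasts as host cells; luminescent beta-galactosidase reporter signal from transgenic T. cruzi replicating inside host cells; inhibitors lower the luminescence signal.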 In kind it is functional, cell-based.
Series [10] concerns the target T2, Replicative DNA helicase DnaB (Mycobacterium tuberculosis, UniProt P9WMR3).
T2 sequence (P9WMR3 whole entry): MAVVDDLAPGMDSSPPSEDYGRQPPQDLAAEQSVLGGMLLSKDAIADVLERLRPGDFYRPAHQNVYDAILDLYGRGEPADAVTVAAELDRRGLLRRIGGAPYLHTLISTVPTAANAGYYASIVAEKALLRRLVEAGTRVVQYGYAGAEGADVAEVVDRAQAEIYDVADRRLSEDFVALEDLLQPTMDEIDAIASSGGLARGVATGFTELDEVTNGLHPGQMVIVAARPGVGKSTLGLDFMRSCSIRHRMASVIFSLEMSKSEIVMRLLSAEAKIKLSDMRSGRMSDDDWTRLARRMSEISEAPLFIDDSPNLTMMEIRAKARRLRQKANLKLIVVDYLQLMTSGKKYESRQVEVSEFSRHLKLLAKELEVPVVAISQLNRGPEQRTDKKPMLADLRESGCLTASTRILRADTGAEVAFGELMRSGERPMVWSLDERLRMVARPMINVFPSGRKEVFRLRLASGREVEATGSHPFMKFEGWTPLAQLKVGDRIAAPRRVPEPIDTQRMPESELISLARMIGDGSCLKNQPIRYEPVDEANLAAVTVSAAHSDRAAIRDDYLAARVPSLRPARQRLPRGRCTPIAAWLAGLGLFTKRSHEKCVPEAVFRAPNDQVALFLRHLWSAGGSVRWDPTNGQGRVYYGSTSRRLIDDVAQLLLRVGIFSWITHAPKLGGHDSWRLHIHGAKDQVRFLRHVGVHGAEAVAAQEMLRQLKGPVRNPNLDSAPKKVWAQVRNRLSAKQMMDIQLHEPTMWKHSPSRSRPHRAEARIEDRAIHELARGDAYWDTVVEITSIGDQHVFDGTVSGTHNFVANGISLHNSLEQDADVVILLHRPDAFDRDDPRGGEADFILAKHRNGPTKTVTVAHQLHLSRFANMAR
Nature of the series: DnaB intein splicing inhibitors, dose response, biochemical, cell-free fluorescence (AID 449749). In kind it is functional.

The target of series [11] is T3, Protein RecA (Mycobacterium tuberculosis, UniProt P9WHJ3).
T3 sequence (P9WHJ3 whole entry): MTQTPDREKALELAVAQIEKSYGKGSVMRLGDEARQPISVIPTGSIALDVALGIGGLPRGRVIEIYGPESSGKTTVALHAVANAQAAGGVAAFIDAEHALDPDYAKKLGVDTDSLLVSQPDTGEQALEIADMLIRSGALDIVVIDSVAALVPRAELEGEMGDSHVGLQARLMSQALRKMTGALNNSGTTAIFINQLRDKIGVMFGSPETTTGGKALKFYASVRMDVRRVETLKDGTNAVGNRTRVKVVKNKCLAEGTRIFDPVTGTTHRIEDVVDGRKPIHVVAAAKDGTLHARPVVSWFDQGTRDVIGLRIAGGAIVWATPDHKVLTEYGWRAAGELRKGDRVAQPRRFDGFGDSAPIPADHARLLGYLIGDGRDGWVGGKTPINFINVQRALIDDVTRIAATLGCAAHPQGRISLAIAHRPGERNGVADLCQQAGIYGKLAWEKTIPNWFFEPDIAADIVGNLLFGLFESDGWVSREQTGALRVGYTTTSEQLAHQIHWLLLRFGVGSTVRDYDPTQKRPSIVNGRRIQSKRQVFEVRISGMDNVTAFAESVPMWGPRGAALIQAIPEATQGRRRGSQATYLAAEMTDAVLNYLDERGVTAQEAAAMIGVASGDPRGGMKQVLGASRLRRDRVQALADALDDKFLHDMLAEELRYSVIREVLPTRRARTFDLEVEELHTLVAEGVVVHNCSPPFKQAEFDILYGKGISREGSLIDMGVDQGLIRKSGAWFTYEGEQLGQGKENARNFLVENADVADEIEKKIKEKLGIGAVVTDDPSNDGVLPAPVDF
Nature of the series: Fluorescence Cell-Free Homogeneous Dose Retest to Identify Inhibitors of RecA-Intein Splicing Activity. [Related pubchem assays (depositor defined):AID2097, AID2223, AID489010, AID492950]. In kind it is functional.

Chain of Cytochrome P450 2C19 (P33261 whole entry): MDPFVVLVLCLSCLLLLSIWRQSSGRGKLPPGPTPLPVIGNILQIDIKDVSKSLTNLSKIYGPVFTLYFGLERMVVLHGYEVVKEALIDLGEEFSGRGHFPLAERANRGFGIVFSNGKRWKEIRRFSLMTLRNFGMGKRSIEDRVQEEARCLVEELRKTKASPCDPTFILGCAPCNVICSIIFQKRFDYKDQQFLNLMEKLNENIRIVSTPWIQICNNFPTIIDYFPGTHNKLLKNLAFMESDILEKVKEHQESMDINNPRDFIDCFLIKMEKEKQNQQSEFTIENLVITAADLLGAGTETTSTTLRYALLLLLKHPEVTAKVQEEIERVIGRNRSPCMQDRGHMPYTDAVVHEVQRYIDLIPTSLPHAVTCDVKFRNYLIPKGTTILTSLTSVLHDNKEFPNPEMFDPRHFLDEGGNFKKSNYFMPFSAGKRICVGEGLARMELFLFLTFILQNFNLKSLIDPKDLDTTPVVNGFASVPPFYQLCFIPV
Chain of Cytochrome P450 3A4 (P08684 whole entry): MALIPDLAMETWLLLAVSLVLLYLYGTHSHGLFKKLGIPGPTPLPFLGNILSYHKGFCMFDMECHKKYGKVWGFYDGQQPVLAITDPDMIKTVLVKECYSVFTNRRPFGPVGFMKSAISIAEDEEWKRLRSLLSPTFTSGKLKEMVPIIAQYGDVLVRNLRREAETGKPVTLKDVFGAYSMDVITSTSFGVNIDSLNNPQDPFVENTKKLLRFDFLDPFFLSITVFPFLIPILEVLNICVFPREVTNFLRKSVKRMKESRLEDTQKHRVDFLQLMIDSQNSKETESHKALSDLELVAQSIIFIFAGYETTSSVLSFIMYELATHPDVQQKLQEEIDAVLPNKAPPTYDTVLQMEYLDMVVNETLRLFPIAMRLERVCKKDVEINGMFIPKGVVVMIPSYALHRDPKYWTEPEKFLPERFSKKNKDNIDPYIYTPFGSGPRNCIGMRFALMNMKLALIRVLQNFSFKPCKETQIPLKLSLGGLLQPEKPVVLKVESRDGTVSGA

Regarding `O=C(c1ccccc1)N1CCSC1=S`, in [1] (read-out: AC50), the concentration at half-maximal activity (AC50) (in general, the concentration at which the activity in the assay is half-maximal) was 25.1 µM (inconclusive).

With `Cc1ccc(C(=O)NCCNC(=O)CN2CCOCC2)cc1`, the figures for the AC50 in series [1] (read-out: AC50) and in [2] were 0.708 µM (inconclusive) and 28.2 µM (inconclusive), respectively.

In the case of `Cc1ccnc(NC(=O)c2cccc(NC(=O)COc3ccccc3)c2)c1`, the half-maximal activity concentration (AC50) in series [3] is 17.8 µM (inconclusive); in series [4], 4.47 µM (inconclusive).

Turning to `O=C(Oc1ccccc1[N+](=O)[O-])c1cccnc1`, the AC50 in series [4] was 15.8 µM (inconclusive).

`O=C1O[C@@H]([C@H](O)[C@H](O)[C@H](O)CO)[C@@H](O)[C@@H]1O`: the concentration at half-maximal activity (AC50) result in [1] is listed as “inconclusive”.

Regarding `COc1ccc(S(=O)(=O)Nc2ccccc2C(=O)N2CCOCC2)cc1Cl`, in series [5], the EC50 (as a rule, the concentration at which the effect is half-maximal) was 46 µM (active).

On to `Fc1ccc(Oc2nc(-c3ccccn3)nc3ccccc23)cc1`, for which the half-maximal activity concentration (AC50) in series [6] was 4.84 µM (active).

Take `CCOc1ccc(NC(=O)c2cccnc2C(=O)O)cc1`: the EC50 in series [5] is on record as > 195 µM (not active).

Turning to `c1ccc2c(CNC3CCCCC3)c[nH]c2c1`, in series [6], the AC50 is 8.45 µM (active).

As to `CCCOc1ccc(N2CC(C(=O)NC(C)C)CC2=O)cc1` (stereo not given), the EC50 in series [5] is > 195 µM (not active).

In the case of `Cc1ccc(NC(=O)C2CCCN2S(=O)(=O)c2ccc3c(c2)n(C)c(=O)c(=O)n3C)cc1C` (stereo not given), the EC50 in series [5] was > 195 µM (not active).

With `COc1ccc(C2=NCCn3nc4cc([N+](=O)[O-])ccc4c32)cc1`, the EC50 in series [5] is given as > 195 µM (not active).

For `Cn1c(=O)c(-c2cccs2)nc2cnc(N3CCNCC3)nc21`, the AC50 in series [2] is 25.1 µM (inconclusive); in [4] it was 39.8 µM (inconclusive).

On to `O=C1/C(=C/c2ccncc2)SC(=S)N1Nc1ccccc1`, for which, in [7], the IC50 (as a rule, the concentration at which inhibition is half-maximal) was 12.7 µM (active).

Consider `CCOC(=O)c1cc2c(=O)n3cccc(C)c3nc2n(CCOC)/c1=N\C(C)=O`, for which the EC50 in series [5] is > 195 µM (not active).

Take `COc1ccc(/C=N\NC(=O)C2C(=O)NCC2c2ccccc2)cc1O` (stereo not given): the figures for the concentration at half-maximal activity (AC50) in series [3], in series [2] and in series [4] were 7.94 µM (inconclusive), 39.8 µM (inconclusive) and 35.5 µM (inconclusive), respectively.

Consider `CC1(C)CC(=O)C(/C=N/CCN2CCN(C(=S)Nc3ccc(F)cc3)CC2)=C(O)C1`, for which the AC50 in series [2] and in series [4] was 25.1 µM (inconclusive) each time.

Consider `CC[C@@H]1C/C=C\Cc2ccccc2[C@H](C(=O)C[C@@H](O)CC(C)=O)OC1=O`, for which the AC50 in series [6] was > 260 µM (inactive).

With `CC(C)C(NC(=O)C1CCCCC1)C(=O)NCc1ccccn1` (stereo not given), in [2], the AC50 was 15.8 µM (inconclusive).

In the case of `Cc1n[nH]c(Nc2ccc(O)cc2)c1[N+](=O)[O-]`, the IC50 in series [7] was 7.06 µM (active).

Regarding `CCC(=O)N(C)/C=C1\Sc2ccccc2C1=O`, the concentration at half-maximal activity (AC50) was 14.1 µM (inconclusive) in series [2] and 12.6 µM (inconclusive) in series [4].

For the molecule `COc1cc(CNc2ccc(N3CCOCC3)cc2)ccc1OCC(=O)NC(C)(C)C`, the IC50 in [7] is 4.16 µM (active).

As to `CCNC(=O)C1CC(=O)OC12CCCCC2` (stereo not given), the half-maximal activity concentration (AC50) in series [4] is 25.1 µM (inconclusive).

For `c1ccc(-c2n[nH]c(-c3ccccc3)c2-c2nc3ccccc3[nH]2)cc1`, in series [1] (read-out: AC50), the AC50 is 22.4 µM (inconclusive).

Regarding `Cc1ccc(C(=O)COC(=O)c2ccccc2N2C(=O)C3C4CCC(C4)C3C2=O)cc1C` (stereo not given), the AC50 in series [4] was 2 µM (inconclusive).

Turning to `COc1cc(/C=N/NC(=O)C(=O)NCc2ccco2)ccc1O`, the half-maximal inhibitory concentration (IC50) in [7] was 12.9 µM (active).

For the molecule `CN1CCN(c2ncc3ncc(=O)n(CCc4ccccc4)c3n2)CC1`, the AC50 is 20 µM (inconclusive) in [3] and 15.8 µM (inconclusive) in series [2].

For the molecule `Cc1cccc(C(=O)NNC(=O)C2CCCO2)c1` (stereo not given), in series [1] (read-out: AC50), the AC50 was 5.01 µM (inconclusive).

For the molecule `NC(=O)C1CCN(C(=O)OCc2ccccc2)CC1`, the AC50 in series [1] (read-out: AC50) was 11.2 µM (inconclusive).

With `Cc1cnc(CNc2nc(-c3ccccc3C)nc3ccccc23)cn1`, the figures for the AC50 in series [3] and in series [2] were 39.8 µM (inconclusive) and 10 µM (inconclusive), respectively.

For the molecule `COc1ccc(N2CCC(CN=C(S)Nc3c(C)cccc3C)C2)cc1` (stereo not given), the IC50 in series [7] is 14.6 µM (active). The half-maximal effective concentration (EC50) in [8] was > 60 µM (not active); in series [9], 2.76 µM (active).

In the case of `C/C(=C/C(=O)NCc1ccccc1)C(=O)O`, the figures for the AC50 result in [1] and in series [4] were “inconclusive” and 0.0398 µM (inconclusive), respectively.

Take `O=Cc1sc(=O)n(Cc2cccc(C(=O)O)c2)c1Cl`: the IC50 in [7] was 18.6 µM (active). For the same molecule, the AC50 in series [10] was 16.5 µM (active). For the same molecule, the EC50 in series [11] is 9.42 µM (active).

Regarding `Cc1nc2ccccn2c1C(=O)CSc1ccccc1Cl`, the half-maximal activity concentration (AC50) in [3] was 25.1 µM (inconclusive); in series [2], 12.6 µM (inconclusive).

For `COc1ccccc1CN1CC2(CCN(C(=O)c3cnccn3)CC2)C1`, the AC50 in series [2] was 20 µM (inconclusive).

In the case of `COc1cccc(Nc2ncc3nc(C)c(=O)n(-c4ccccc4)c3n2)c1`, the AC50 was 25.1 µM (inconclusive) in [1] (read-out: AC50) and 31.6 µM (inconclusive) in [4].

In the case of `Cc1cc(=O)oc(C)c1C(=O)NCCCN1CCN(c2ccc(F)cc2)CC1`, the AC50 in series [3] and in series [4] was 15.8 µM (inconclusive) throughout.

In the case of `COc1ccccc1CNC(=O)Cn1nnc(-c2ccncc2)n1`, the AC50 in series [3] was 2.24 µM (inconclusive); in [2], 3.16 µM (inconclusive).

For the molecule `COC(=O)[C@H](Cc1ccccc1)N(Cc1ccccc1)S(=O)(=O)N(Cc1ccccc1)[C@@H](Cc1ccccc1)C(=O)OC`, the AC50 in [6] is 4.51 µM (active).

For `COC(=O)[C@@]1(Cc2ccc(OC)cc2)[C@H]2c3cc(C(=O)N(C)C)n(CCc4ccccn4)c3C[C@H]2CN1C(=O)c1ccccc1`, in series [1] (read-out: AC50), the AC50 is 39.8 µM (inconclusive).

As to `COc1ccc(NC(=O)Cn2cccc2)c(OC)c1`, in series [4], the half-maximal activity concentration (AC50) was 7.08 µM (inconclusive).

Take `COc1cc(/C=N/NC(=O)CC#N)cc(Br)c1O`: the IC50 in series [7] is 9.57 µM (active).
